Legend:
crabgrass, large = assay: Test A preemergence; format: in vivo, Digitaria sanguinalis; details: preemergence
Procedure, shortened: (§1)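 Visual injury ratings, 0 = no effect to 100 = complete control, taken about 10 days after treatment against untreated controls. Test chemicals, in a non-phytotoxic surfactant-containing solvent, were sprayed onto soil preemergence or onto one- to two-leaf plants (2–10 cm) postemergence, in loam–sand soil under greenhouse conditions.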

wheat = assay: Test A preemergence; format: in vivo, Triticum aestivum; details: preemergence
Procedure, shortened: as §1

morningglory = assay: Test A postemergence; format: in vivo, Ipomoea spp.
Procedure, shortened: as §1

soybean [1] = assay: Test C preemergence; format: in vivo, Glycine max
Procedure, shortened: (§2)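 Visual rating, 0–100 scale (0 no effect, 100 complete control), vs untreated controls after 13–15 d greenhouse. Pre: seeds in loam/sand, treated at sowing. Post: plants in peat-based mix, 1- to 4-leaf (2–18 cm). Solvent + surfactant formulation, non-phytotoxic.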

barnyardgrass = assay: Test C preemergence; format: in vivo, Echinochloa crus-galli
Procedure, shortened: as §2

waterhemp = assay: Test C preemergence; format: in vivo, Amaranthus rudis
Procedure, shortened: as §2

velvetleaf = assay: Test C preemergence; format: in vivo, Abutilon theophrasti
Procedure, shortened: as §2

ryegrass, Italian = assay: Test C postemergence; format: in vivo, Lolium multiflorum
Excerpt: (§3) Seeds of plant species selected from blackgrass (Alopecurus myosuroides), ryegrass, Italian (Italian ryegrass, Lolium multiflorum), wheat (winter wheat, Triticum aestivum), galium (catchweed bedstraw, Galium aparine), corn (Zea mays), crabgrass, large (large crabgrass, Digitaria sanguinalis), foxtail, giant (giant foxtail, Setaria faberii), johnsongrass (Sorghum halepense), lambsquarters (Chenopodium album), morningglory (Ipomoea coccinea), nutsedge, yellow (yellow nutsedge, Cyperus esculentus), pigweed (redroot pigweed, Amaranthus retroflexus), ragweed (common ragweed, Ambrosia elation), soybean (Glycine max), barnyardgrass (Echinochloa crus-galli), oilseed rape (Brassica napus), waterhemp (common waterhemp, Amaranthus rudis), oat, wild (wild oat, Avena fatua), kochia (Kochia scoparia), Surinam grass (Brachiaria decumbens), foxtail, green (green foxtail, Setaria viridis), goosegrass (Eleusine indica), bromegrass, downy (downy bromegrass, Bromus tectorum), nightshade (eastern black nightshade, Solanum ptycanthum), cocklebur (common cocklebur, Xanthium strumarium), cupgrass, woolly (woolly cupgrass, Eriochloa villosa), bermudagrass (Cynodon dactylon), sunflower, (common oilseed sunflower, Helianthus annuus), Russian thistle (Salsola kali), and velvetleaf (Abutilon theophrasti) were planted into a blend of loam soil and sand and treated preemergence with test chemicals formulated in a non-phytotoxic solvent mixture which included a surfactant.
(§4) At the same time, plants selected from these crop and weed species and also chickweed (common chickweed, Stellaria media), canarygrass (littleseed canarygrass, Phalaris minor), and deadnettle (henbit deadnettle, Lamium amplexicaule), were planted in pots containing Redi-Earth® planting medium (Scotts Company, 14111 Scottslawn Road, Marysville, Ohio 43041) comprising spaghnum peat moss, vermiculite, wetting agent and starter nutrients and treated with postemergence applications of test chemicals formulated in the same manner. Plants ranged in height from 2 to 18 cm (1- to 4-leaf stage) for postemergence treatments. Treated plants and controls were maintained in a greenhouse for 13 to 15 days, after which time all species were compared to controls and visually evaluated. Plant response ratings, summarized in Table C, are based on a scale of 0 to 100 where 0 is no effect and 100 is complete control. A dash (-) response means no test result.

corn = assay: Test C postemergence; format: in vivo, Zea mays
Excerpt: as §3, §4

foxtail, giant = assay: Test C postemergence; format: in vivo, Setaria faberii
Excerpt: as §3, §4

johnsongrass = assay: Test C postemergence; format: in vivo, Sorghum halepense
Excerpt: as §3, §4

nutsedge, yellow = assay: Test C postemergence; format: in vivo, Cyperus esculentus
Excerpt: as §3, §4

ragweed = assay: Test C postemergence; format: in vivo, Ambrosia elation
Excerpt: as §3, §4

soybean [2] = assay: Test C postemergence; format: in vivo, Glycine max
Procedure, shortened: as §2

oilseed rape = assay: Test C postemergence; format: in vivo, Brassica napus
Procedure, shortened: as §2

[3] = 125 g ai/ha, visual injury, 0 to 100 scale, approx. 10 days
[4] = 500 g ai/ha, visual injury after approx. 10 days, 0 to 100 scale (0 no effect, 100 complete control)
[5] = Preemergence, 16 g ai/ha, scale 0 to 100
[6] = preemergence, 31 g ai/ha, visual rating, scale 0 to 100 (0 no effect, 100 complete control), 13 to 15 days
[7] = preemergence, 62 g ai/ha, 13 to 15 days, scale 0 to 100, 0 = no effect, 100 = complete control
[8] = preemergence, 125 g ai/ha, scale 0 to 100, 0 is no effect, 100 is complete control
[9] = Postemergence, 31 g ai/ha, visually evaluated after 13 to 15 days
[10] = postemergence, 62 g ai/ha, scale 0 to 100
[11] = postemergence, 125 g ai/ha, scale 0 to 100, 0 no effect, 100 complete control

CCc1cc(C(=O)NOC(C)C)nn1Cc1ccnc(C(F)(F)F)c1 [Compound 101]
95: Waterhemp plant response rating (waterhemp; [6])
25: Soybean plant response rating (soybean [2]; [10])
75: Barnyardgrass plant response rating (barnyardgrass; preemergence, 31 g ai/ha, scale 0 to 100 (0 no effect, 100 complete control), 13 to 15 days) | Plant response rating, Velvetleaf (velvetleaf; [7]) | Plant response rating, Ragweed (ragweed; [11])
30: Foxtail, Giant plant response rating (foxtail, giant; [10])
60: Plant response rating, Corn (corn; [11])
10: Plant response rating, Ryegrass, Italian (ryegrass, Italian; [11]) | Plant response rating (scale of 0 to 100 where 0 is no effect and 100 is complete control), Corn (corn; [9]) | Corn plant response rating (corn; [10]) | Plant response rating (scale of 0 to 100), Foxtail, Giant (foxtail, giant; Postemergence, 16 g ai/ha) | Plant response rating (scale of 0 to 100 where 0 is no effect and 100 is complete control), Foxtail, Giant (foxtail, giant; [9])
50: Soybean plant response rating (soybean [1]; [8])
35: Velvetleaf plant response rating (velvetleaf; [6])
65: Plant response rating, Foxtail, Giant (foxtail, giant; [11])
0: Plant response rating, Soybean (soybean [1]; [5]) | Plant response rating, Velvetleaf (velvetleaf; [5]) | Plant response rating (scale of 0 to 100), Johnsongrass (johnsongrass; Postemergence, 16 g ai/ha)
5: Soybean plant response rating (soybean [1]; [6]) | Plant response rating, Barnyardgrass (barnyardgrass; [5]) | Plant response rating (scale of 0 to 100), Ryegrass, Italian (ryegrass, Italian; Postemergence, 16 g ai/ha) | Plant response rating (scale of 0 to 100 where 0 is no effect and 100 is complete control), Ryegrass, Italian (ryegrass, Italian; [9]) | Ryegrass, Italian plant response rating (ryegrass, Italian; [10]) | Plant response rating (scale of 0 to 100), Corn (corn; Postemergence, 16 g ai/ha) | Plant response rating (scale of 0 to 100 where 0 is no effect and 100 is complete control), Johnsongrass (johnsongrass; [9]) | Johnsongrass plant response rating (johnsongrass; [10]) | Plant response rating, Johnsongrass (johnsongrass; [11]) | Plant response rating (scale of 0 to 100), Nutsedge, Yellow (nutsedge, yellow; Postemergence, 16 g ai/ha) | Plant response rating (scale of 0 to 100 where 0 is no effect and 100 is complete control), Nutsedge, Yellow (nutsedge, yellow; [9]) | Nutsedge, Yellow plant response rating (nutsedge, yellow; [10]) | Plant response rating (scale of 0 to 100), Oilseed Rape (oilseed rape; Postemergence, 16 g ai/ha) | Plant response rating (scale of 0 to 100 where 0 is no effect and 100 is complete control), Oilseed Rape (oilseed rape; [9]) | Oilseed Rape plant response rating (oilseed rape; [10]) | Plant response rating, Oilseed Rape (oilseed rape; [11])
15: Plant response rating (scale of 0 to 100), Ragweed (ragweed; Postemergence, 16 g ai/ha) | Plant response rating (scale of 0 to 100 where 0 is no effect and 100 is complete control), Ragweed (ragweed; [9]) | Plant response rating (scale of 0 to 100), Soybean (soybean [2]; Postemergence, 16 g ai/ha)
40: Plant response rating, Soybean (soybean [1]; [7]) | Plant response rating, Nutsedge, Yellow (nutsedge, yellow; [11]) | Plant response rating, Soybean (soybean [2]; [11])
70: Wheat plant response rating (wheat; [3])
20: Ragweed plant response rating (ragweed; [10]) | Plant response rating (scale of 0 to 100 where 0 is no effect and 100 is complete control), Soybean (soybean [2]; [9])
85: Plant response rating, Waterhemp (waterhemp; [5])
100: Crabgrass, Large plant response rating (crabgrass, large; [3]) | Crabgrass, Large plant response rating (crabgrass, large; [4]) | Wheat plant response rating (wheat; [4]) | Morningglory plant response rating (morningglory; Postemergence, 500 g ai/ha, visual rating after approx. 10 days, 0 to 100 scale (0 no effect, 100 complete control)) | Morningglory plant response rating (morningglory; postemergence, 125 g ai/ha, about 10 days, visual rating on 0 to 100 scale (0 no effect, 100 complete control)) | Plant response rating, Barnyardgrass (barnyardgrass; [7]) | Barnyardgrass plant response rating (barnyardgrass; [8]) | Plant response rating, Waterhemp (waterhemp; [7]) | Waterhemp plant response rating (waterhemp; [8]) | Velvetleaf plant response rating (velvetleaf; [8])
